# Read-outs that look alike come from different tables or passages of the source.
# Legend:
# THP-1 cells [1] = assay: Cytokine release (TNF-α, MCP-1, IL-6) by LPS-stimulated THP-1 macrophages after fatty acid incubation; format: cell-based; settings: compared to control macrophages; for Inflammatory cytokine release (TNF-α, MCP-1, IL-6): 24 h fatty acid (50 and 100 μM), then 24 h LPS; for Cytokine release with increasing concentration of fatty acids: 50 to 100 μM
# Experimental: (§1) THP-1 cells were maintained in RPMI 1640+2 mM L-Glutamine, 10 mM HEPES, 1 mM sodium pyruvate, 4500 mg/L glucose, and 1500 mg/L sodium bicarbonate; supplemented with 3.5 μL/L of 2-mercaptoethanol and 10% fetal bovine serum (FBS). Cell line was maintained in 75 cm^2 filtered cap flasks in a 37° C. incubator with 5% CO2. THP-1 cells were seeded in 24 well plates at 5×10^5 cells/mL using 600 μL/well and allowed to differentiate into macrophages (MΦ) for 72 h with phorbol 12-myristate 13-acetate (PMA) at a final concentration of 50 ng/mL.
# Experiment 1: Prior to incubation with individual fatty acids, the cells were starved for 8 h in a 2% lipo-free FBS RPMI medium. Individual fatty acids were added in duplicate into the 24 well plate at two concentrations, 50 μM and 100 μM. Every assay was cultured in three runs with duplicates in each run pooled. After incubation for 24 h with fatty acids the MΦ were scraped off the plates and fatty acids were isolated as described in the ‘Animal Tests’ portion of this Example. The fatty acid profiles of the MΦ were determined as previously described (Wang, et al., 2010, Clin. Nutr., DOI: 10.1016/j.clnu.2013.04.009).
# (§2) Experiment 2: Previously differentiated MΦ were incubated with fatty acids as described in ‘Experiment 1’ for 24 hours. At the 24 h time point the cells were then stimulated with lipopolysaccharide from E. coli 0111:B4 for another 24 hours. The plates were centrifuged at 1200×g for 5 minutes and supernatant was then collected and analyzed for cytokines. The MΦ were scraped off the plates and fatty acids were isolated as described in the ‘Animal Portion’. The fatty acid profiles of the MΦ were determined as previously described (Wang, et al., 2010, Clin. Nutr., DOI: 10.1016/j.clnu.2013.04.009).
# A linear mixed effects model was used in R, lme in the nlme package, for estimating treatment effects on cytokine production in LPS stimulated THP-1 cells. The fixed effects fit were treatment, FA concentration, and when significant LPS concentration was fit as a covariate, the plate cells were cultured on nested within run was fit as a random effect. Least squares means were analyzed as outlined above and pairwise comparisons were made between treatments for FA concentration, or where significant LPS concentration.
# The objective of this study was to determine if docosapentaenoic acid n-3 (DPAn3) enrichment of macrophages (MΦ) changed their inflammatory response relative to saturated (S), mono-unsaturated (MU), and other poly-unsaturated (PU) fatty acids (FA). Differentiated THP-1 cells were incubated with one of 11 FA (50 and 100 μM) of varying degrees of unsaturation or no FA for 24 h prior to 24 h of stimulation with lipopolysaccharide from E. coli. Fatty acids were collected from MΦ without stimulation to determine the fatty acid profiles. Media was collected from MΦ post-stimulation and probed for prostaglandin E2, and cytokines, including tumor necrosis factor-α, monocyte chemoattractant protein-1, and interleukin-6. Prostaglandin E2 production was greater (P<0.05) for AA than all other FA, and omega-3 PUFA decreased (P<0.01) PGE2 compared to n6 PUFA and all other FA.
# THP-1 cells [2] = assay: Prostaglandin E2 production by LPS-stimulated THP-1 macrophages after fatty acid incubation; format: cell-based; settings: 24 h fatty acid (50 and 100 μM), then 24 h LPS; compared to other FA
# Experimental: as §1, §2
# The objective of this study was to determine if docosapentaenoic acid n-3 (DPAn3) enrichment of macrophages (MΦ) changed their inflammatory response relative to saturated (S), mono-unsaturated (MU), and other poly-unsaturated (PU) fatty acids (FA). […]
# [3] = system: murine peritoneal macrophages; settings: cited from earlier work
# LDLr−/− mice [4] = assay: Lipid and cholesterol (TC, FC, CE) in aortas of LDLr−/− mice fed an atherogenic diet; format: in vivo; settings: supplement 0.76% w/w of the diet
# Source text: (§3) 48 male LDLr−/− mice (8-10 weeks of age, ˜20 g) were obtained from Jackson Laboratories (stock #2207) and allowed to acclimate to the cages, room, and feeding design for 12 days. After the acclimation period mice were weighed and randomly assigned to one of six treatments. Mice were fed an isolipid (20% total fatty acids w/w), isonitrogenous, and 0.2% cholesterol (w/w) diet, which is considered atherogenic (Ain76, 58TQ TestDiet®) as a base diet. This base diet was formulated to meet or exceed all nutrient and energy requirements for a growing mouse. The treatments were added to the base diet (0.76% w/w of the total diet) and was made once at the beginning of the study, separated into weekly aliquots, stored at −80° C., allowed to thaw at 4° C. for 2 days prior to feeding, and stored at 4° C. until fed. A sample from each weekly aliquot was collected, composited, and archived for fatty acid analysis at a later date. […]
# (§4) Mouse body weights were recorded once weekly in conjunction with cage changes. Blood serum lipid profiles were analyzed on blood samples from the mice before (subset of 6 mice), 10 weeks, and 20 weeks relative to initiation of dietary treatments. […] Total lipid content was measured using the procedure outline by Folch, et al. (1957) J. Biol. Chem., 226:497-509, prior to cholesterol assessment. Total cholesterol, free cholesterol, and cholesterol ester were quantified as previously described (Wang, et al., 2010, Clin. Nutr., DOI: 10.1016/j.clnu.2013.04.009).
# An analysis of variance model was used in R, aov in the stats package, for estimating treatment effects on cholesterol deposition in mouse aortas. Least squares means and contrasts were analyzed as outlined above. […]
# LDLr−/− mice [5] = assay: Serum lipid profile of LDLr−/− mice fed an atherogenic diet; format: in vivo; settings: week 20
# Source text: (§5) 48 male LDLr−/− mice (8-10 weeks of age, ˜20 g) were obtained from Jackson Laboratories (stock #2207) and allowed to acclimate to the cages, room, and feeding design for 12 days. After the acclimation period mice were weighed and randomly assigned to one of six treatments. Mice were fed an isolipid (20% total fatty acids w/w), isonitrogenous, and 0.2% cholesterol (w/w) diet, which is considered atherogenic (Ain76, 58TQ TestDiet®) as a base diet. This base diet was formulated to meet or exceed all nutrient and energy requirements for a growing mouse. The treatments were added to the base diet (0.76% w/w of the total diet) and was made once at the beginning of the study, separated into weekly aliquots, stored at −80° C., allowed to thaw at 4° C. for 2 days prior to feeding, and stored at 4° C. until fed. A sample from each weekly aliquot was collected, composited, and archived for fatty acid analysis at a later date. The treatments were as follows: (1) Negative control diet, 3.5% of the total fatty acids were replaced with milk fat (the only source of fat in the base diet), (2) 3.5% of the total fatty acids were replaced with purified ethyl esters of DHA, (3) 3.5% of the total fatty acids were replaced with purified ethyl esters of DPAn3, (4) 3.5% of the total fatty acids were replaced with purified ethyl esters of EPA, (5) 3.5% of the total fatty acids were replaced with omega-3 fatty acids from Lovaza® (GlaxoSmithKline), and (6) 3.5% of the total fatty acids were replaced with omega-3 fatty acids from ΩmegaActiv® DPA 5000 (Omega Protein Inc., Houston, Tex.; Table 1).
# Mouse body weights were recorded once weekly in conjunction with cage changes. Blood serum lipid profiles were analyzed on blood samples from the mice before (subset of 6 mice), 10 weeks, and 20 weeks relative to initiation of dietary treatments. Three to five days prior to the end of the study each mouse was administered an intraperitoneal injection of 1.0 mL thioglycollate broth (4.05 g/dL) to elicit peritoneal macrophages. The peritoneal cells centrifuged then cultured in RPMI 1640 (+2 mM L-glutamine, +10 mM HEPES, +1 mM sodium pyruvate, +4500 mg/L glucose, +1500 mg/L sodium bicarbonate) on tissue culture plates (size) which allowed for adhesion of the macrophages. Plates where then vigorously washed to ensure proper macrophage isolation. Macrophages were scraped off the plates and aliquotted into a glass tube for fatty acid extraction, which was then performed via a modified Folch method. The heart and aorta were isolated from each mouse and immediately frozen in liquid nitrogen for later dissection. Aortic arches were dissected from the aortic root to the abdominal aorta using a microscope. Total lipid content was measured using the procedure outline by Folch, et al. (1957) J. Biol. Chem., 226:497-509, prior to cholesterol assessment. Total cholesterol, free cholesterol, and cholesterol ester were quantified as previously described (Wang, et al., 2010, Clin. Nutr., DOI: 10.1016/j.clnu.2013.04.009).
# Average daily feed intake for the mice was cut into quartiles in order to assign a feed consumption class. A linear mixed effects model was used in R, lme in the nlme package, for estimating treatment effects on blood lipid profiles in mice. The fixed effects fit were treatment, and week of study, animal nested within treatment was fit as a random effect. Least squares means were calculated using the lsmeans package for all blood lipid profiles and a general linear hypothesis test, using glht in the multcomp package, was utilized for specified contrasts, control vs. the average of all omega-3 containing diets. Because Lovaza® is composed of high and almost equal levels of EPA and DHA we also contrasted the diet supplemented with Lovaza® to the average of the diets supplemented with EPA and DHA alone. Pairwise comparisons were made between time of blood analysis, and between treatments at each individual time frame.
# LDLr−/− mice [6] = assay: Serum glucose of LDLr−/− mice fed an atherogenic diet; format: in vivo; settings: week 20
# Source text: as §3, §4
# Average daily feed intake for the mice was cut into quartiles in order to assign a feed consumption class. […] Least squares means were calculated using the lsmeans package for all blood lipid profiles and a general linear hypothesis test, using glht in the multcomp package, was utilized for specified contrasts, control vs. the average of all omega-3 containing diets. […]
# TNF-α [7] = assay: TNF-α concentration in adipose tissue of mice fed omega-3 products; format: in vivo
# Source text: as §5
# TNF-α concentration in adipose tissue of mice fed with different omega-3 products
# IL-8 [8] = assay: Fluorescence intensity (relative) of brain microvessel, IL-8; format: in vivo, mice; settings: control = 1.00
# Source text: as §5, with “1). […]” for “1).”
# MCP-1 = assay: Fluorescence intensity (relative) of brain microvessel, MCP-1; format: in vivo, mice; settings: control = 1.00
# Source text: as §5, with “1). […]” for “1).”
# IL-8 [9] = assay: Fluorescence intensity (relative) of brain hippocampus, IL-8; format: in vivo, mice; settings: control = 1
# Source text: as §5, with “1). […]” for “1).”
# TIMP2 = assay: Fluorescence intensity (relative) of brain hippocampus, TIMP2; format: in vivo, mice; settings: control = 1
# Source text: as §5, with “1). […]” for “1).”
# TNF-α [10] = assay: Fluorescence intensity (relative) of brain hippocampus, TNF-α; format: in vivo, mice; settings: control = 1
# Source text: as §5, with “1). […]” for “1).”
Compound,"Inflammatory cytokine release (TNF-α, MCP-1, IL-6) (THP-1 cells [1])",Prostaglandin E2 production (THP-1 cells [2]),TNF-α production ([3]; AA at 2-5 μM),TNF-α production ([3]; AA at concentrations as low as 1 μM),Cytokine release with increasing concentration of fatty acids (THP-1 cells [1]),Aorta lipid (LDLr−/− mice [4]) [%],Serum LDL cholesterol (LDLr−/− mice [5]) [mg/dL],Serum total cholesterol (LDLr−/− mice [5]) [mg/dL],Glucose concentration in serum (LDLr−/− mice [6]) [mg/dL],TNF-α Concentration (TNF-α [7]) [pg/μg protein],IL-8 fluorescence intensity (relative) (IL-8 [8]),MCP-1 fluorescence intensity (relative) (MCP-1),IL-8 fluorescence intensity (relative) (IL-8 [9]),TIMP2 fluorescence intensity (relative) (TIMP2),TNF-α fluorescence intensity (relative) (TNF-α [10])
"CCCCC/C=C\C/C=C\C/C=C\C/C=C\CCCC(=O)O [AA, arachidonic acid]",decreased,greater,completely inhibited,decreased,,,,,,,,,,,
CCCCCCCCCCCCCCCC(=O)O [C16:0],did not change,,,,"did not change, or increased",,,,,,,,,,
CCCCCCCCCCCCCCCCCC(=O)O [C18:0],did not change,,,,"did not change, or increased",,,,,,,,,,
"CC/C=C\C/C=C\C/C=C\C/C=C\C/C=C\C/C=C\CCC(=O)O [DHA, docosahexaenoic acid]",,,,,,36.38,495.51,726.86,172.58,0.82,0.86,0.93,0.46,0.23,0.29
"CC/C=C\C/C=C\C/C=C\C/C=C\C/C=C\CCCCCC(=O)O [DPA, docosapentaenoic acid]",,,,,,29.52,563.45,692.98,166.23,0.41,0.96,0.92,0.70,0.17,0.28
"CC/C=C\C/C=C\C/C=C\C/C=C\C/C=C\CCCC(=O)O [EPA, eicosapentaenoic acid]",,,,,,29.93,562.07,663.37,198.65,0.58,0.93,0.96,0.72,0.63,0.31
CCCCCCCC/C=C\CCCCCCCC(=O)O [oleic acid],did not change,,,,"did not change, or increased",,,,,,,,,,

# Reference: patent US20150133554A1, “PURIFICATION OF DPA ENRICHED OIL” (Omega Protein Corporation, priority 2013, published 2015)
